Source: patent US7094581B2, “Hyaluronan synthases and methods of making and using same” (The Board of Regents of the University of Oklahoma, priority 1998, dated 2006)
Read-outs that look alike come from different tables or passages of the source.

What was measured:
[1] = target: T1, spHAS (Streptococcus pyogenes serotype M6, UniProt Q5X9A9); assay: Effect of sulfhydryl reagents on spHAS activity in E. coli membranes; type: biochemical; details: for Inhibition of HAS Activity (% relative to control), spHAS: E. coli membranes with spHAS-H6, 4° C. 1 h, 5 mM NEM, 5 mM IAA, 0.5 mM 5,5′-dithiobis-(2-nitrobenzoic acid), 0.05 mM methylmethanethiosulfonate, 10 mM sodium arsenite
T1 construct: made in house; host or cells: E. coli SURE cells (isolated membranes)
T1 sequence (Q5X9A9 1-419): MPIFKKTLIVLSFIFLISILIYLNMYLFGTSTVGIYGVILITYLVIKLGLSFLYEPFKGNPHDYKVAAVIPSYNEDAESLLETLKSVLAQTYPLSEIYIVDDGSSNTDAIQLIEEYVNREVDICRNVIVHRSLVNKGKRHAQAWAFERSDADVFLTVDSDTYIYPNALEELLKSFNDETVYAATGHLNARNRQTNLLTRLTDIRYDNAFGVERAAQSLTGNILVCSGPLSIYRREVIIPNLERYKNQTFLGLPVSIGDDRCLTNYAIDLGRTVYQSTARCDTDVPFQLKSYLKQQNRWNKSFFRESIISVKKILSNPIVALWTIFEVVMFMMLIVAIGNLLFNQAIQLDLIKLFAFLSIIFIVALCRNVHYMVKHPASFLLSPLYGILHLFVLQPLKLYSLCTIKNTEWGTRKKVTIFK
Experimental: (§1) SeHAS is the smallest HAS protein (417 amino acids) and contains four Cys residues. […] To explore the possible role of cysteines in the function of HAS, the activities of seHAS and spHAS were assayed in the presence of different sulfhydryl reagents (Table II). […] The inhibition of each HAS by NEM was examined in more detail with respect to time of incubation and NEM concentration (FIG. 2).
(§2) E. coli SURE cells transformed with plasmids containing various seHAS mutants were grown in LB medium with vigorous shaking at 32° C. to A600 ˜0.8 and induced with 1 mM isopropyl-β-thiogalactoside for 3 h. Cells were harvested and membranes were prepared as described previously. The kinetic constants for HAS were determined at 37° C. in 100 μl of 50 mM sodium and potassium phosphate, pH 7.0, with 20 mM MgCl2, 1 mM DTE, 240 μM UDP-GIcUA, 0.7 μM UDP-[^14C]GIcUA and 0.6–1.0 mM UDP-GIcNAc. in 100 μl of 25 mM sodium and potassium phosphate, pH 7, containing 50 mM NaCl, 20 mM MgCl2, 1 mM dithiothreitol, 1 mM UDP-GIcUA, 0.68 μM UDP-GIcUA and 1 mM UDP-GIcNAc. Some assays also contained 0.1 mM EDTA and 20% glycerol (v/v). To initiate the enzyme reaction, ˜0.5–40 μg of membrane protein was added and the mixtures were gently shaken in a MicroMixer X-36 (Tiatec) at 30° C. for 1–2 h. Reactions were terminated by the addition of SDS to a final concentration of 2% (w/v). The incorporation of radioactive [^14C]GIcUA was determined by descending paper chromatography and the Km and Vmax values were determined as described by Tlapak-Simmons et al (1999b). Data were analyzed by the methods of Michaelis-Menton or Hill. Protein content was determined by the method of Bradford using bovine serum albumin as the standard. All Cys-mutant or sulfhydryl-treated seHAS samples were assayed in duplicate or triplicate using two or three independent membrane preparations. […] All enzyme assays were performed under conditions that were linear with respect to time and protein concentration.
(§3) Stock solutions (10–100 mM) of NEM, IAA or other sulfhydryl reagents were made in PBS, pH 7.0. Suspensions of membranes containing seHAS or spHAS were incubated with 0–5 mM of the sulfhydryl reagent at 4° C. and the reactions were stopped by adding DTE to a final concentration of 10 mM. The membranes were then assayed for HAS activity as described above.

[2] = system: seHAS; assay: Effect of sulfhydryl reagents on seHAS activity in E. coli membranes; type: biochemical, Streptococcus equisimilis; details: E. coli membranes with seHAS-H6, 4° C. 1 h, 5 mM NEM, 5 mM IAA, 0.5 mM 5,5′-dithiobis-(2-nitrobenzoic acid), 0.05 mM methylmethanethiosulfonate, 10 mM sodium arsenite
Experimental: as §1, §2, §3

[3] = system: wild-type seHAS; assay: Utilization of UDP-GlcUA and UDP-GlcNAc by wild-type seHAS after NEM or sodium arsenite treatment; type: biochemical, Streptococcus equisimilis; details: membranes 4° C. 1 h with 5 mM NEM or 10 mM sodium arsenite
Experimental: FIG. 3. Effect of NEM or sodium arsenite treatment on the utilization of UDP-GIcUA and UDP-GIcNAc by wild-type seHAS. E. coli membranes containing seHAS protein were incubated at 4° C. for 1 h in PBS containing 5 mM NEM or 10 mM Sodium Arsenite (SodArs), and the control membranes were incubated with PBS alone. Michaelis-Menten constants (Km) were calculated from the activities of seHAS at varying concentrations of UDP-GIcUA or UDP-GIcNAc.
Modification of the protein by NEM could affect any one or several of the six discrete functions that HAS must perform in order to synthesize HA. In order to determine if one of the nucleotide-sugar binding sites was affected by NEM, we examined the UDP-GIcUA and UDP-GIcNAc saturation profiles for treated and untreated seHAS (FIG. 3 and Table III).
E. coli SURE cells transformed with plasmids containing various seHAS mutants were grown in LB medium with vigorous shaking at 32° C. to A600 ˜0.8 and induced with 1 mM isopropyl-β-thiogalactoside for 3 h. Cells were harvested and membranes were prepared as described previously. The kinetic constants for HAS were determined at 37° C. in 100 μl of 50 mM sodium and potassium phosphate, pH 7.0, with 20 mM MgCl2, 1 mM DTE, 240 μM UDP-GIcUA, 0.7 μM UDP-[^14C]GIcUA and 0.6–1.0 mM UDP-GIcNAc. in 100 μl of 25 mM sodium and potassium phosphate, pH 7, containing 50 mM NaCl, 20 mM MgCl2, 1 mM dithiothreitol, 1 mM UDP-GIcUA, 0.68 μM UDP-GIcUA and 1 mM UDP-GIcNAc. Some assays also contained 0.1 mM EDTA and 20% glycerol (v/v). To initiate the enzyme reaction, ˜0.5–40 μg of membrane protein was added and the mixtures were gently shaken in a MicroMixer X-36 (Tiatec) at 30° C. for 1–2 h. Reactions were terminated by the addition of SDS to a final concentration of 2% (w/v). The incorporation of radioactive [^14C]GIcUA was determined by descending paper chromatography and the Km and Vmax values were determined as described by Tlapak-Simmons et al (1999b). Data were analyzed by the methods of Michaelis-Menton or Hill. Protein content was determined by the method of Bradford using bovine serum albumin as the standard. All Cys-mutant or sulfhydryl-treated seHAS samples were assayed in duplicate or triplicate using two or three independent membrane preparations. Results are presented as the mean±standard errors. All enzyme assays were performed under conditions that were linear with respect to time and protein concentration. None of the seHAS variant enzymes were unstable under the conditions employed.

[4] = system: seHAS; type: biochemical, Streptococcus equisimilis; details: for Hill number: seHAS variants, UDP-GlcNAc utilization
Experimental: as §2

[5] = system: spHAS; assay: Kinetic analysis of Cys-mutants of spHAS, normalized to spHAS protein; type: biochemical, Streptococcus pyogenes; design: Vmax: unit not given here
Experimental: Kinetic analyses of the single and multiple spHAS Cys-mutants were performed to investigate the possibility that multiple Cys residues are critical in a coordinated way for enzyme activity. […] The spHAS(C225S) and spHAS(C280A) mutants had the most reduced activities with Vmax values at 30–50% of wildtype. The spHAS(C261,280A) and Cys-null mutant had 50–75% of the wildtype activity.
Membranes were isolated from E. coli SURE strains expressing mutant or wildtype spHAS, fractionated by SDS-PAGE according to the procedure of Laemmli (1970) and the proteins were electrotransferred to nitrocellulose as described by Towbin et al. (1979) with minor modifications (Tlapak-Simmons, et al., 1998). Western analysis was performed by incubating these blots for 1 h at room temperature with a biotinylated anti-His5 monoclonal antibody, as the primary antibody, then washing and incubating with 3 μg/ml ^125I-streptavidin, prepared as described hereinabove. After 1 h at room temperature, the blots were washed, dried and exposed to a Phosphoscreen for 1 to 72 h. The screens were analyzed using a Molecular Dynamics Phosphoimager and integrated density values were obtained for each spHAS band. Integrated density values were also obtained for increasing amounts of affinity-purified spHAS (Tlapak-Simmons et al., 1999a), which was used as an internal standard in the same blot to generate a standard curve. Dilutions of membrane samples were made as necessary to ensure that all estimates of HAS quantity were in the linear range of the assay. Those membrane samples giving a linear response with increasing protein were then compared to the standard curve to calculate the amount of spHAS present per μl membrane suspension. These values were then used to normalize the kinetic results obtained using membranes from the various spHAS mutants.
E. coli SURE cells, previously transformed with plasmids containing wildtype or mutant spHAS genes, were grown to an A600 of ˜1.2 and induced with 1 mM isopropyl thio-β-D-galactoside for three h. Cells were harvested and membranes were prepared as described previously (Tlapak-Simmons, et al., 1999a). The activities of mutant spHAS variants were assessed by measuring their Vmax and Km values in isolated membranes, normalized as described above for the amount of enzyme expressed. The Km values were determined using a descending paper chromatography assay (Tlapak-Simmons, et al., 1999b), holding one UDP-sugar substrate constant and varying the other from 0.01 to 4 mM. Data were analyzed by linear regression using Haynes-Wolf plots for UDP-GIcUA or Hill plots for UDP-GIcNAc.

`CSS(C)(=O)=O` [Methylmethanethiosulfonate] was tested, and the “Inhibition of HAS Activity (% relative to control), spHAS” value [1] was 89 ± 5.5%, the “Inhibition of HAS Activity (% relative to control), seHAS” value [2] was 93 ± 5.4% and the “Inhibition of HAS Activity (% relative to control), seHAS” value ([2]; listed as methylmethanethiosulfonate) was > 93%.

`O=C(O)CI` [Iodacetic acid] was tested, and the “Inhibition of HAS Activity (% relative to control), spHAS” value [1] was 13 ± 5.4% and the “Inhibition of HAS Activity (% relative to control), seHAS” value [2] was 15%.

For `O=[As]O` [Sodium Arsenite], the “Vmax of treated wild-type seHAS, UDP-GlcNAc” value [3] was 9.5 ± 1.1 nmol/µg/h, the “Vmax of treated wild-type seHAS, UDP-GlcUA” value [3] was 9.5 ± 1.1 nmol/µg/h and the Km ([3]; read-out: Km for UDP-GlcNAc of treated wild-type seHAS) was 112 ± 38 µM. The Km ([3]; read-out: Km for UDP-GlcUA of treated wild-type seHAS) was 67 ± 23 µM, the inhibition at 10000 µM ([1]; read-out: Inhibition of HAS Activity (% relative to control), spHAS) was 46 ± 5.1% and the “Inhibition of HAS Activity (% relative to control), seHAS” value [2] was 40 ± 4.0%.

`O=C(O)c1cc(SSc2ccc([N+](=O)[O-])c(C(=O)O)c2)ccc1[N+](=O)[O-]` [5,5′-dithiobis-(2-nitrobenzoic acid)] was tested, and the “Inhibition of HAS Activity (% relative to control), spHAS” value [1] was 52 ± 4.9% and the “Inhibition of HAS Activity (% relative to control), seHAS” value [2] was 52 ± 6.5%.

B1: WT: wild-type Streptococcus equisimilis hyaluronan synthase (seHAS-His6), SEQ ID NO:2 (protein, listed as Streptococcus equisimilis)
chain: MRTLKNLITVVAFSIFWVLLIYVNVYLFGAKGSLSIYGFLLIAYLLVKMSLSFFYKPFKGRAGQYKVAAIIPSYNEDAESLLETLKSVQQQTYPLAEIYVVDDGSADETGIKRIEDYVRDTGDLSSNVIVHRSEKNQGKRHAQAWAFERSDADVFLTVDSDTYIYPDALEELLKTFNDPTVFAATGHLNVRNRQTNLLTRLTDIRYDNAFGVERAAQSVTGNILVCSGPLSVYRREVVVPNIDRYINQTFLGIPVSIGDDRCLTNYATDLGKTVYQSTAKCITDVPDKMSTYLKQQNRWNKSFFRESIISVKKIMNNPFVALWTILEVSMFMMLVYSVVDFFVGNVREFDWLRVLAFLVIIFIVALCRNIHYMLKHPLSFLLSPFYGVLHLFVLQPLKLYSLFTIRNADWGTRKKLL
modifications: His6 tag
For B1, the Vmax ([4]; seHAS variants in membranes from E. coli SURE cells) was 5.60 ± 0.48 nmol/pmol/h, the Km ([4]; seHAS variants in membranes from E. coli SURE cells, read-out: Km for UDPGlcNAc) was 74 ± 7 µM and the Km ([4]; seHAS variants in membranes from E. coli SURE cells, read-out: Km for UDPGlcUA) was 77 ± 5 µM. The Hill number [4] was 1.1 ± 0.1 and the Hill number ([4]; listed as wild-type) was 1.0.

B2: Wildtype: wildtype Streptococcus pyogenes hyaluronan synthase (spHAS-His6), SEQ ID NO:4 (protein)
chain: MPIFKKTLIVLSFIFLISILIYLNMYLFGTSTVGIYGVILITYLVIKLGLSFLYEPFKGNPHDYKVAAVIPSYNEDAESLLETLKSVLAQTYPLSEIYIVDDGSSNTDAIQLIEEYVNREVDICRNVIVHRSLVNKGKRHAQAWAFERSDADVFLTVDSDTYIYPNALEELLKSFNDETVYAATGHLNARNRQTNLLTRLTDIRYDNAFGVERAAQSLTGNILVCSGPLSIYRREVIIPNLERYKNQTFLGLPVSIGDDRCLTNYAIDLGRTVYQSTARCDTDVPFQLKSYLKQQNRWNKSFFRESIISVKKILSNPIVALWTIFEVVMFMMLIVAIGNLLFNQAIQLDLIKLFAFLSIIFIVALCRNVHYMVKHPASFLLSPLYGILHLFVLQPLKLYSLCTIKNTEWGTRKKVTIFK
modifications: His6 tag; Streptococcus pyogenes
B2 was tested, and the “Hill number” value ([5]; UDP-GlcNAc utilization) was 1.8 ± 0.1, the Km ([5]; at 0.5 mM UDP-GlcUA, read-out: Km UDP-GlcNAc) was 398 ± 112 µM and the Km ([5]; at 1.5 mM UDP-GlcNAc, read-out: Km UDP-GlcUA) was 50.4 ± 10.8 µM. It also gave a Vmax ([5]; both substrates incorporated per hour per pmol spHAS) of 791 ± 215.
